Values quoted from earlier work, collected in US6419963B1, “Composition and method for the treatment of diaper rash using natural products” (priority 2001, dated 2002).

Key:
[1] = test system: ethanol-induced ulcers; conditions: rats

Row | Compound | solubility in water | ethanol-induced ulcers [1]
1 | [O]=[Zn] [Zinc oxide] | almost totally insoluble | –
2 | CN/C(=N/CCSCc1nc[nH]c1C)NC#N [cimetidine] | – | not affected
3 | Zinc glycerolate | insoluble | –
